Test results reported in PubChem BioAssay (NCI).
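Cells were grown in 96-well plates and exposed to each compound for 48 hours at five concentrations; endpoints were interpolated linearly between bracketing concentrations, or set to the highest concentration if not reached. GI50 marks 50% less growth. TGI marks complete inhibition of growth.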

Key:
Test in all cases: inhibition of tumour cell growth, NCI panel, 48 h
A498 renal = tested on: A498 renal
HCC-2998 colon = tested on: HCC-2998 colon
NCI-H23 lung = tested on: NCI-H23 lung
RXF 393 renal = tested on: RXF 393 renal
SF-268 CNS = tested on: SF-268 CNS
SK-MEL-2 melanoma = tested on: SK-MEL-2 melanoma
SN12C renal = tested on: SN12C renal
SNB-19 CNS = tested on: SNB-19 CNS
UACC-257 melanoma = tested on: UACC-257 melanoma
HOP-62 NSCLC = tested on: HOP-62 NSCLC

## C[C@]12CC[C@H](OC(=O)Cc3ccc(N(CCCl)CCCl)cc3)CC1CC[C@@H]1C2CC[C@]2(C)NC(=O)CCC12 (stereo partly specified)
A498 renal
  TGI: 43.5 µM
HCC-2998 colon
  TGI: 34.8 µM
NCI-H23 lung
  TGI: 35.4 µM
RXF 393 renal
  TGI: 24.3 µM
SF-268 CNS
  TGI: 33 µM
SK-MEL-2 melanoma
  TGI: 48.7 µM
SN12C renal
  TGI: 18.6 µM
SNB-19 CNS
  TGI: > 100 µM
UACC-257 melanoma
  TGI: 27 µM

## S=P(C1CCCCC1)(C1CCCCC1)C(c1cccnc1)N1CCCC1 (stereo unspecified)
A498 renal
  TGI: 67.9 µM
HOP-62 NSCLC
  TGI: 36.2 µM
NCI-H23 lung
  TGI: 34.6 µM
RXF 393 renal
  TGI: 33.4 µM
SF-268 CNS
  TGI: 38.4 µM
SK-MEL-2 melanoma
  TGI: 48.7 µM
SN12C renal
  TGI: 33.1 µM
SNB-19 CNS
  TGI: > 100 µM
UACC-257 melanoma
  TGI: > 100 µM

## O=c1/c(=C/c2ccccc2O)sc2nc3ccccc3n12
A498 renal
  TGI: > 100 µM
HCC-2998 colon
  TGI: > 100 µM
NCI-H23 lung
  TGI: > 100 µM
RXF 393 renal
  TGI: 57.9 µM
SF-268 CNS
  TGI: 56.7 µM
SK-MEL-2 melanoma
  TGI: > 100 µM
SN12C renal
  TGI: > 100 µM
SNB-19 CNS
  TGI: > 100 µM
UACC-257 melanoma
  TGI: > 100 µM

## Cc1cc(C)nc(NS(=O)(=O)c2ccc(Nc3nc4nc(NCc5ccccc5)nc(-c5ccc(O)cc5)c4c(=O)[nH]3)cc2)n1
A498 renal
  GI50: 24.5 µM
  TGI: > 100 µM
HCC-2998 colon
  GI50: > 100 µM
  TGI: > 100 µM
HOP-62 NSCLC
  GI50: > 100 µM
  TGI: > 100 µM
NCI-H23 lung
  GI50: 79.7 µM
  TGI: > 100 µM
SF-268 CNS
  GI50: 18 µM
  TGI: > 100 µM
SK-MEL-2 melanoma
  GI50: 20.7 µM
  TGI: > 100 µM
SN12C renal
  GI50: 25.1 µM
  TGI: > 100 µM
SNB-19 CNS
  GI50: 27.4 µM
  TGI: > 100 µM

## O=C(/C=C/c1ccc[nH]1)c1ccccc1
HOP-62 NSCLC
  TGI: > 100 µM
NCI-H23 lung
  TGI: > 100 µM
RXF 393 renal
  TGI: > 100 µM
SF-268 CNS
  TGI: > 100 µM
SK-MEL-2 melanoma
  TGI: > 100 µM
SN12C renal
  TGI: > 100 µM
SNB-19 CNS
  TGI: > 100 µM
UACC-257 melanoma
  TGI: > 100 µM

## CCCCCCCC(=O)SCC/C=C/[C@@H]1CC(=O)NCc2cccc(n2)C2=N[C@@](C)(CS2)C(=O)N[C@@H](C(C)C)C(=O)O1
A498 renal
  GI50: 0.0202 µM
  TGI: 0.111 µM
HCC-2998 colon
  GI50: 0.0528 µM
  TGI: 0.324 µM
HOP-62 NSCLC
  GI50: 0.0252 µM
  TGI: > 33.3 µM
NCI-H23 lung
  GI50: 0.0858 µM
  TGI: > 33.3 µM
RXF 393 renal
  GI50: 0.0534 µM
  TGI: 0.207 µM
SF-268 CNS
  GI50: 0.0986 µM
  TGI: > 28 µM
SK-MEL-2 melanoma
  GI50: 0.0369 µM
  TGI: 0.881 µM
SN12C renal
  GI50: 0.145 µM
  TGI: > 33.3 µM
SNB-19 CNS
  GI50: 0.191 µM
  TGI: > 33.3 µM

## COC(=O)c1ccc(CS(=O)(=O)c2ccccc2)cc1
HCC-2998 colon
  TGI: > 100 µM
HOP-62 NSCLC
  TGI: > 100 µM
NCI-H23 lung
  TGI: > 100 µM
RXF 393 renal
  TGI: > 100 µM
SF-268 CNS
  TGI: > 100 µM
SK-MEL-2 melanoma
  TGI: > 100 µM
SN12C renal
  TGI: > 100 µM
SNB-19 CNS
  TGI: > 100 µM
UACC-257 melanoma
  TGI: > 100 µM

## COc1cccc(-c2cc(=O)c3cc(C)c(C)c(C(=O)O)c3o2)c1
A498 renal
  TGI: > 100 µM
HCC-2998 colon
  TGI: > 100 µM
HOP-62 NSCLC
  TGI: > 100 µM
NCI-H23 lung
  TGI: > 100 µM
SF-268 CNS
  TGI: > 100 µM
SK-MEL-2 melanoma
  TGI: > 100 µM
SN12C renal
  TGI: > 100 µM
SNB-19 CNS
  TGI: > 100 µM
UACC-257 melanoma
  TGI: > 100 µM

## Cc1ccc2oc(=O)cc(CC(=O)O)c2c1
A498 renal
  TGI: > 100 µM
HCC-2998 colon
  TGI: > 100 µM
HOP-62 NSCLC
  TGI: > 100 µM
NCI-H23 lung
  TGI: > 100 µM
RXF 393 renal
  TGI: > 100 µM
SF-268 CNS
  TGI: > 100 µM
SK-MEL-2 melanoma
  TGI: > 100 µM
SN12C renal
  TGI: > 100 µM
SNB-19 CNS
  TGI: > 100 µM

## C=C(c1ccc(OC)c(/C=C/C(=O)c2cc(OC)c(OC)c(OC)c2)c1)c1cc(OC)c(OC)c(OC)c1
A498 renal
  GI50: 1.48 µM
  TGI: 3.11 µM
HCC-2998 colon
  GI50: 1.84 µM
  TGI: 3.37 µM
HOP-62 NSCLC
  GI50: 2.27 µM
  TGI: 6.68 µM
NCI-H23 lung
  GI50: 1.95 µM
  TGI: 4.9 µM
RXF 393 renal
  GI50: 1.11 µM
  TGI: 2.62 µM
SF-268 CNS
  GI50: 1.46 µM
  TGI: 3.83 µM
SK-MEL-2 melanoma
  GI50: 2.58 µM
  TGI: 12.4 µM
SN12C renal
  GI50: 1.87 µM
  TGI: 9.55 µM
UACC-257 melanoma
  GI50: 1.63 µM
  TGI: 5.11 µM

## N=C(N)c1ccc(CS(=O)(=O)F)cc1
HCC-2998 colon
  GI50: > 100 µM
  TGI: > 100 µM
HOP-62 NSCLC
  GI50: > 100 µM
  TGI: > 100 µM
NCI-H23 lung
  GI50: > 100 µM
  TGI: > 100 µM
RXF 393 renal
  GI50: > 100 µM
  TGI: > 100 µM
SF-268 CNS
  GI50: > 100 µM
  TGI: > 100 µM
SK-MEL-2 melanoma
  GI50: > 100 µM
  TGI: > 100 µM
SN12C renal
  GI50: > 100 µM
  TGI: > 100 µM
SNB-19 CNS
  GI50: > 100 µM
  TGI: > 100 µM
UACC-257 melanoma
  GI50: > 100 µM
  TGI: > 100 µM

## CC1=CC[C@@H]2[C@@H](CC[C@@]2(C)O)C(C)(C)[C@H]1CC[C@@H]1[C@@]2(C)CC[C@@H](O)C(C)(C)O[C@@H]2CC[C@]1(C)O
A498 renal
  TGI: 29.3 µM
HCC-2998 colon
  TGI: 33.4 µM
HOP-62 NSCLC
  TGI: 75.4 µM
NCI-H23 lung
  TGI: 76.2 µM
SK-MEL-2 melanoma
  TGI: > 100 µM
SN12C renal
  TGI: 57.2 µM
SNB-19 CNS
  TGI: 46.2 µM
UACC-257 melanoma
  TGI: 81 µM

## Nc1nc2ccccc2c2[nH]c3ccccc3c12
A498 renal
  GI50: 1.16 µM
  TGI: 2.42 µM
HOP-62 NSCLC
  GI50: 1.13 µM
  TGI: 2.44 µM
NCI-H23 lung
  GI50: 1.37 µM
  TGI: 2.86 µM
RXF 393 renal
  GI50: 0.311 µM
  TGI: 1.48 µM
SF-268 CNS
  GI50: 1.97 µM
  TGI: 7.23 µM
SK-MEL-2 melanoma
  GI50: 1.54 µM
  TGI: 2.88 µM
SN12C renal
  GI50: 1.24 µM
  TGI: 2.97 µM
SNB-19 CNS
  GI50: 1.1 µM
  TGI: 3.71 µM
UACC-257 melanoma
  GI50: 1.64 µM
  TGI: 2.99 µM

## Cc1c(C)n(CC(O)CNC2CCCCC2C)c2ccccc12 (stereo unspecified)
A498 renal
  GI50: 4.99 µM
  TGI: 19.6 µM
HCC-2998 colon
  GI50: 3.03 µM
  TGI: 10.5 µM
HOP-62 NSCLC
  GI50: 16.6 µM
  TGI: 32 µM
NCI-H23 lung
  GI50: 16.8 µM
  TGI: 32.8 µM
RXF 393 renal
  GI50: 10.5 µM
  TGI: 23 µM
SF-268 CNS
  GI50: 15.4 µM
  TGI: 30.2 µM
SN12C renal
  GI50: 16 µM
  TGI: 30.5 µM
SNB-19 CNS
  GI50: 15.5 µM
  TGI: 30.9 µM
UACC-257 melanoma
  GI50: 16.2 µM
  TGI: 31 µM

## COC1=CC(=O)c2c(O)c3c(c(O)c2C1=O)OC1(Oc2c(cc4cc(C)oc(=O)c4c2O)CC1O)C3O (stereo unspecified)
A498 renal
  TGI: > 100 µM
HCC-2998 colon
  TGI: 63.8 µM
HOP-62 NSCLC
  TGI: > 100 µM
NCI-H23 lung
  TGI: > 100 µM
SF-268 CNS
  TGI: > 100 µM
SK-MEL-2 melanoma
  TGI: > 100 µM
SN12C renal
  TGI: 49.3 µM
SNB-19 CNS
  TGI: 62.4 µM
UACC-257 melanoma
  TGI: > 100 µM

## CC(=O)OC1COC(n2c(O)c(N=Nc3ccc([N+](=O)[O-])cc3)c3cc(Br)c([N+](=O)[O-])cc32)C(OC(C)=O)C1OC(C)=O (stereo unspecified)
HCC-2998 colon
  TGI: > 100 µM
HOP-62 NSCLC
  TGI: > 100 µM
NCI-H23 lung
  TGI: > 100 µM
RXF 393 renal
  TGI: 89.8 µM
SF-268 CNS
  TGI: > 100 µM
SK-MEL-2 melanoma
  TGI: > 100 µM
SN12C renal
  TGI: > 100 µM
SNB-19 CNS
  TGI: > 100 µM
UACC-257 melanoma
  TGI: > 100 µM

## CC(C)(C)c1cc(O)c2c(c1O)C(=O)CCC2
A498 renal
  TGI: > 100 µM
HCC-2998 colon
  TGI: > 100 µM
HOP-62 NSCLC
  TGI: 91.9 µM
NCI-H23 lung
  TGI: > 100 µM
RXF 393 renal
  TGI: 90.4 µM
SN12C renal
  TGI: > 100 µM
SNB-19 CNS
  TGI: > 100 µM
UACC-257 melanoma
  TGI: 74.3 µM

## CN(C(=N)c1ccccc1)c1ccccc1
HCC-2998 colon
  TGI: > 100 µM
NCI-H23 lung
  TGI: > 100 µM
SK-MEL-2 melanoma
  TGI: > 100 µM
SN12C renal
  TGI: > 100 µM
SNB-19 CNS
  TGI: > 100 µM

## Nc1nc(=O)c2[nH]cnc2n1O
A498 renal
  TGI: > 100 µM
HOP-62 NSCLC
  TGI: > 100 µM
NCI-H23 lung
  TGI: > 100 µM
RXF 393 renal
  TGI: > 100 µM
SF-268 CNS
  TGI: > 100 µM
SK-MEL-2 melanoma
  TGI: > 100 µM
SN12C renal
  TGI: > 100 µM
SNB-19 CNS
  TGI: > 100 µM
UACC-257 melanoma
  TGI: > 100 µM
